Experimental data taken from patent US11813252B2, “Treatment for Parkinson's disease” (SUN PHARMA ADVANCED RESEARCH COMPANY LTD., priority 2016, dated 2023).
Each block holds one compound with its values, some of them ahead of it.

How the values were obtained:
hERG K+ channel = biological target: T1, hERG K+ channel (Homo sapiens, UniProt Q12809); test: hERG K+ channel patch clamp in HEK293 cells; format: cell-based; conditions: for Inhibition of hERG current (in words): at the concentration tested
T1 construct: expressed in transfected cells
T1 sequence (Q12809 whole entry): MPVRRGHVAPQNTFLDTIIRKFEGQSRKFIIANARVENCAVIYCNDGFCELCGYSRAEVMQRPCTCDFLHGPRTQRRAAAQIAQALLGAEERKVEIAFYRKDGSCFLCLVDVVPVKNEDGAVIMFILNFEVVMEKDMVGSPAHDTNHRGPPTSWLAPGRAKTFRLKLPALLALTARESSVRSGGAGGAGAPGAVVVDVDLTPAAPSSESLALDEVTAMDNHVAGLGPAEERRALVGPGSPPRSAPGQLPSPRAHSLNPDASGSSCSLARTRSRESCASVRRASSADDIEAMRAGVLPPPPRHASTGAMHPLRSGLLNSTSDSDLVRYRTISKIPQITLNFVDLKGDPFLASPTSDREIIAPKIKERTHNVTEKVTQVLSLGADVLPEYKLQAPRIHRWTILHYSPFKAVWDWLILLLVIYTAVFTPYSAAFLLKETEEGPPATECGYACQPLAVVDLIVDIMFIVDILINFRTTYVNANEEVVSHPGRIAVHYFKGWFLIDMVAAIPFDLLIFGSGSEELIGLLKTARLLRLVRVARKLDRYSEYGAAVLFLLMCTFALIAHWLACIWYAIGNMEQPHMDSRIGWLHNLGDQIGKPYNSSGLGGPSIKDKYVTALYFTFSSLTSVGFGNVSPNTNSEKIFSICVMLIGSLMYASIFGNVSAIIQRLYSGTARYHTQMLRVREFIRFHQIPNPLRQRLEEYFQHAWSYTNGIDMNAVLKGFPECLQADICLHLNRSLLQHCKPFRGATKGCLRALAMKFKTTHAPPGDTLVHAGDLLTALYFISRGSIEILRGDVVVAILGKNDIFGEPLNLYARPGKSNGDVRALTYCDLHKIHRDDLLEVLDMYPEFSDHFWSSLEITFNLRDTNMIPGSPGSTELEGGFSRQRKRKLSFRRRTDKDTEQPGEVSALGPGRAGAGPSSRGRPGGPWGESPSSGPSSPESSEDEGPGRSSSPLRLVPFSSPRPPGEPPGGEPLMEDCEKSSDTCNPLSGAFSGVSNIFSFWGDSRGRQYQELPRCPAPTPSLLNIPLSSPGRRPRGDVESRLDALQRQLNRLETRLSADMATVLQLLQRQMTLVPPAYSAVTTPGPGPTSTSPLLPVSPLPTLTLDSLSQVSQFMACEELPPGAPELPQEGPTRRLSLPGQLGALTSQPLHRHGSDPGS
Description: The in vitro effect of the compounds of Formula I.a and I.b on ionic currents in voltage-clamped human embryonic kidney cells (HEK293) that stably express the human ether-à-go-go-related gene (hERG) was examined. Two concentrations of the compounds of Formula I.a and I.b (1 and 10 μM) were tested at near physiological temperature.
Cells were transferred to the recording chamber and superfused with vehicle control solution (HEPES-buffered physiological saline solution+1% dimethylsulfoxide+1% Bovine serum albumin). Micropipette solution for whole cell patch clamp recordings was composed of: potassium aspartate, 130 mM; MgCl2, 5 mM; EGTA, 5 mM; ATP, 4 mM; HEPES, 10 mM; pH adjusted to 7.2 with 10N KOH. Micropipette solution was prepared in batches, aliquoted, stored frozen and a fresh aliquot thawed each day. The recording was performed at a temperature of 33 to 35° C. using a combination of in-line solution pre-heater, chamber heater and feedback temperature controller. Temperature was measured using a thermistor probe in the recording chamber. Micropipettes for patch clamp recording were made from glass capillary tubing using a P-97 micropipette puller (Sutter Instruments, Novato, Calif.). A commercial patch clamp amplifier was used for whole cell recordings. Before digitization, current records were low-pass filtered at one-fifth of the sampling frequency.
Cells stably expressing hERG were held at −80 mV. Onset and steady state inhibition of hERG potassium current due to the test compounds (Formula I.a and I.b) were measured using a pulse pattern with fixed amplitudes (conditioning prepulse +20 mV for 1 s; repolarizing test ramp to −80 mV (−0.5 V/s) repeated at 5 s intervals). […] was subtracted off-line digitally from the data to determine the potency of the test compounds for hERG inhibition.

[1] = test system: neurodegeneration induced by MPTP (TH-positive neurons); test: MPTP animal model of Parkinson's disease, TH immunohistochemistry; format: in vivo, C57BL/6 mice; conditions: oral, 10 or 30 mg/kg once a day, 6 days before, on the day of and 7 days after MPTP; substantia nigra pars compacta
[2] = Brain/plasma pharmacokinetic study in mice; format: in vivo, C57BL6 mice
Description: At 1, 4 & 8 hour time points post treatment, mice were anesthetized with isoflurane and a 0.4 mL of blood was withdrawn from retro-orbital plexus into eppendorf tubes containing 8 μL sodium heparin as an anticoagulant (100 IU/ml) and transferred to ice containers. Blood samples were centrifuged immediately for 7 min at 8500 rpm, 4° C. Plasma was separated in the pre-labeled eppendorf tubes and stored at −70° C. till further analysis. Immediately thereafter, the mice were sacrificed, whole brain was removed and rinsed with ice-cold phosphate buffered saline (PBS) to remove extraneous blood and blot-dried. Brain tissue samples were weighed and homogenized in 1:2 volume of PBS using a tissue homogenizer and stored in labeled vials at −70° C. until further analysis. Concentrations of the compound of Formula I.a in brain and plasma were determined using the LC-MS technique.

[3] = QT, QTc intervals and heart rate in conscious telemetered beagle dogs; format: in vivo; conditions: for Emesis: beagle dogs
Description: Compound of Formula I.a was administered via peroral (p.o.) route at three dose levels: 5, 15, and 30 mg/kg in conscious telemetered male and female beagle dogs.
(§1) Measurements of ECG parameters (QT interval, QTcb interval, QTcf interval) and heart rate were carried out and recorded over a period of 2 hour prior to drug administration (baseline), and continuously up to 24 hour post-administration. Each animal received both vehicle (placebo) and three different doses of the compound of Formula I.a on different days in a Latin square design, with a washout period of a minimum of 96 hr. On a separate day, one additional oral dosing of compound of Formula I.a was performed to assess plasma concentrations of the compound of Formula I.a at different time points, to derive pharmacokinetic (PK) parameters.
Data of ECG parameters (QT interval, QTcb interval, QTcf interval,) and heart rate were statistically compared as follows: Data of the placebo group at 0.5, 1, 1.5, 2, 3, 4, 5, 6, 8, 12, and 24 hour time points were compared with baseline data of the same group. Data of different groups treated with the compound of Formula I.a were compared with the corresponding data of the placebo group.

[4] = Plasma pharmacokinetics in beagle dogs; format: in vivo; conditions: dog, oral
Description: as §1

[5] = QT, QTc intervals and heart rate in anesthetized guinea pig; format: in vivo, Dunkin-Hartley guinea pigs; conditions: 1 mg/kg intravenous infusion over 10 min
Description: Male Dunkin-Hartley guinea pigs of body weight range 300-400 g were anaesthetized by intraperitoneal injection of urethane (1.5 g/kg). A tracheotomy was performed and animal was allowed to breath spontaneously throughout the experiment. The left jugular vein was catheterized using polyethylene catheter filled with heparinized saline solution (100 IU/mL) for drug administration. Electrodes were placed in lead II position and baseline ECG was recorded.
For different animals, according to body weight, doses of the compound of Formula I.b were weighed and prepared in 0.5 mL of DMSO and administered via a slow intravenous infusion administered over a period of 10 min. ECGs were recorded during and after completion of infusion up to 0.5 hr. QT and RR intervals were measured, using PowerLab 4SP® software. The data were analyzed at 1, 5, and 10 min during infusion and 5, 10, 15 and 30 min after infusion taking mean of 9 beats.

Abl (human) = Abl (human) (Homo sapiens, UniProt P00519); test: Abl kinase inhibition; format: biochemical; conditions: read-out: Comparative potencies of tyrosine kinase inhibitors in c-Abl IC50
Chain of Abl (human) (P00519 whole entry): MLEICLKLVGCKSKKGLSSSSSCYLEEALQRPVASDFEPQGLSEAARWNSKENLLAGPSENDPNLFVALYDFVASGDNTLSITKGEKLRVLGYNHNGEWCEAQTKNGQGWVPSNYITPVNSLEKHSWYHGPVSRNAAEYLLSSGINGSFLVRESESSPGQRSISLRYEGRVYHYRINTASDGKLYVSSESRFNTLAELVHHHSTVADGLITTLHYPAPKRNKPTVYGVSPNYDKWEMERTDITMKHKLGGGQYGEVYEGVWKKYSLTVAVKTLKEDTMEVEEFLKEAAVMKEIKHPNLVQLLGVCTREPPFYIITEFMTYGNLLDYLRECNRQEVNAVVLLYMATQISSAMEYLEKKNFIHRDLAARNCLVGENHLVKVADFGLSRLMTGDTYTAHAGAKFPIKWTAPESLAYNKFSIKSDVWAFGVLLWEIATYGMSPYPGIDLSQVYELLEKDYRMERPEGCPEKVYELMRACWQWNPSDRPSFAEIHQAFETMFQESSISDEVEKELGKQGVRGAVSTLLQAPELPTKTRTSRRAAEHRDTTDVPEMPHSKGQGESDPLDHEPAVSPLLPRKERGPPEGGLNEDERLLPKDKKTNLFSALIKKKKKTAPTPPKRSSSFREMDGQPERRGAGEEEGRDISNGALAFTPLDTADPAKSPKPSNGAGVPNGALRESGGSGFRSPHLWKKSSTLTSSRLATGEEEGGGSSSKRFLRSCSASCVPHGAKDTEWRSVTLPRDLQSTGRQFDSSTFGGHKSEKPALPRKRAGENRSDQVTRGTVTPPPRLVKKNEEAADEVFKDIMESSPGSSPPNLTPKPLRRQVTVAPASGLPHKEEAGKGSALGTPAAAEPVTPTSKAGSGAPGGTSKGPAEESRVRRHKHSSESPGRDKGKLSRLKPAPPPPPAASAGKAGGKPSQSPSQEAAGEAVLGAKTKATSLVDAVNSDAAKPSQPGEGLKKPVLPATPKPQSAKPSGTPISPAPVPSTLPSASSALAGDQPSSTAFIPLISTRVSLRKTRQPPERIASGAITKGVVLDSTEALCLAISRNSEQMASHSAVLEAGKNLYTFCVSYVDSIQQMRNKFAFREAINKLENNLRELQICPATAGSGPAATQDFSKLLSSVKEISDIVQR
Description: [specific activity approx. 500 cpm/pmol, concentration as required). The reaction is initiated by the addition of the MgATP mix. After incubation for 40 minutes at room temperature, the reaction is stopped by the addition of 5 μL of a 3% phosphoric acid solution. 10 μL of the reaction is then spotted onto a P30 filtermat and washed three times for 5 minutes in 75 mM phosphoric acid and once in methanol prior to drying and scintillation counting.

[6] = human, HEK293 cells stably expressing hERG, 33 to 35° C., n=3, read-out: Mean percent inhibition of hERG current

Brain to plasma ratio as compared to nilotinib or dasatinib ([2]; oral 30 mg/kg): significantly higher | AUC(0-inf) ([4]; 5 mg/kg): 1920 to 4820 ng·h/mL | Cmax ([4]; 5 mg/kg): 1220 to 2030 ng/mL | AUC(0-inf) ([4]; 15 mg/kg): 6780 to 12800 ng·h/mL | Cmax ([4]; 15 mg/kg): 2720 to 5320 ng/mL | AUC(0-inf) ([4]; 30 mg/kg): 25900 to 46700 ng·h/mL | Cmax ([4]; 30 mg/kg): 9820 to 9970 ng/mL
SMILES: Cc1ccc(C(=O)NNC(=O)c2c(C)cccc2Cl)cc1C#Cc1cnc2ccccc2c1 [Compound I.a, N′-(2-Chloro-6-methylbenzoyl)-4-methyl-3-[2-(3-quinolyl)ethynyl]-benzohydrazide]
Inhibition of hERG current (in words) (hERG K+ channel): did not show any significant inhibition of hERG current | inhibition at 1 µM (hERG K+ channel; [6]): 2.1 ± 0.4% | inhibition at 10 µM (hERG K+ channel; human, HEK293 cells stably expressing hERG, 10 μM, 33 to 35° C., n=3, read-out: Mean percent inhibition of hERG current): 9.7 ± 0.4% | Prevention of neurodegeneration induced by MPTP (TH-positive neurons, percentage area, integrated density) [1]: significantly prevented the neurodegeneration induced by MPTP | Emesis ([3]; p.o., 30 mg/kg, at 14 min following dosing): Emesis occurred in two animals | Emesis ([3]; p.o., 5 and 15 mg/kg): No emesis was observed | Change in ECG morphology ([3]; conscious beagle dogs, any dose level): no change in ECG morphology | Heart rate ([3]; conscious beagle dogs, p.o., 5 and 15 mg/kg): remained unchanged | Effect on QT, QTcb, QTcf durations compared with placebo ([3]; conscious beagle dogs, p.o., 5 and 15 mg/kg, up to 24 hour): no effects | Effect on cardiovascular functions ([3]; conscious beagle dogs, single oral administration up to 15 mg/kg): no effect on cardiovascular functions

IC50 (Abl (human)): 0.6 nM
SMILES: Cc1ccc(C(=O)NNC(=O)c2c(C)cccc2Cl)cc1C#Cc1ccc(NC(=O)C2CC2)nc1 [Compound I.b, Cyclopropanecarboxylic acid (5-{5-[N′-(2-chloro-6-methylbenzoyl)hydrazinecarbonyl]-2-methyl-phenylethynyl}-pyridin-2-yl)amide]
Change in QT intervals [5]: no change in QT intervals | Inhibition of hERG current (in words) (hERG K+ channel): did not show any significant inhibition of hERG current | inhibition at 0.3 µM (hERG K+ channel; human, HEK293 cells stably expressing hERG, 0.3 μM, 33 to 35° C., n=3, read-out: Mean percent inhibition of hERG current): 5.6% | inhibition at 1 µM (hERG K+ channel; [6]): 12.9% | inhibition at 3 µM (hERG K+ channel; human, HEK293 cells stably expressing hERG, 3 μM, 33 to 35° C., n=3, read-out: Mean percent inhibition of hERG current): 25% | Prevention of neurodegeneration induced by MPTP (TH-positive neurons, percentage area, integrated density) [1]: significantly prevented the neurodegeneration induced by MPTP

Plasma conc. ([2]; oral, I.a 30 mg/kg, nilotinib 100 mg/kg, dasatinib 30 mg/kg, 8 hr): BQL
SMILES: Cc1nc(Nc2ncc(C(=O)Nc3c(C)cccc3Cl)s2)cc(N2CCN(CCO)CC2)n1 [Dasatinib, dasatinib, reference compound]
